“Also recorded” adds a separate entry of the source. Blank lines part the entries; values can stand above or below the compound they belong to.
Legend:
[1] = molecular target: T1, TLK1B (Homo sapiens, UniProt Q9UKI8); assay: TLK1B kinase assay (auto kinase assay with γ 32P ATP; recombinant TLK1B with Rad9 peptide); format: biochemical; conditions: for activity on TLK (TLK kinase assays): inactive defined at concentrations <10 μM
T1 sequence (Q9UKI8 1-549 isoform Q9UKI8-3): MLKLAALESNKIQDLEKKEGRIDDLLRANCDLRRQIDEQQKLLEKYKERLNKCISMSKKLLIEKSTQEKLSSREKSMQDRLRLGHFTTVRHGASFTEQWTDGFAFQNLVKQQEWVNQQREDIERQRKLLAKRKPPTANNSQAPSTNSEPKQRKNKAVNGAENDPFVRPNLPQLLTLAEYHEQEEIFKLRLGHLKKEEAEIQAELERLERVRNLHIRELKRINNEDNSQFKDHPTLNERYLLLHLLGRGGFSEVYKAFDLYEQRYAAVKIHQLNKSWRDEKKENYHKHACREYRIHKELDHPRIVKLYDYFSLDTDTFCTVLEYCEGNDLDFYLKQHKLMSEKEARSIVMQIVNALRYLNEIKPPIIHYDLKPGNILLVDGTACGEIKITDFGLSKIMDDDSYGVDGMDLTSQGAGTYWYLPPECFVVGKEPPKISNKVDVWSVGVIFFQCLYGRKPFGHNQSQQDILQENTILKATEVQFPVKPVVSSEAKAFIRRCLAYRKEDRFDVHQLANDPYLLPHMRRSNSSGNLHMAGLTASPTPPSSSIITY
Experimental: To identify inhibitors of TLK, we developed a high throughput screen with recombinant TLK1B, a small Rad9 peptide and the ADP Hunter reagent (DiscoveRx). Using this assay, the Innovative North Louisiana Experimental Therapeutics (INLET) screening core (affiliated with the FWCC) screened the Prestwick library, two other proprietary libraries, and a subset of the ChemDiv library (˜6000 compounds).
Following the initial fluorescent screen at a compound concentration of ˜5 μM, potential hits were tested with a more sensitive auto kinase assay with γ 32P ATP. Inhibition of auto phosphorylation was confirmed by TCA precipitable counts (FIG. 1A). The inhibitors are highly specific for TLKs. […] We have additional evidence for direct binding of these compounds to the recombinant protein (to be published elsewhere).
TlK1 immune complexes isolated from […] protein extracts using abtiserum made in our lab and Protein A beads. Adsorbed proteins were washed twice in kinase assay buffer (KAB) (50 mM HEPES pH 7.2, 10 mM MgCl2, 5 mM MnCl2, 2.5 mM EGTA, 1 mM DTT, 1 mM NaF, 0.2 mM sodium o vanadate, […] leupeptin, 2 g/ml aprotinin) and incubated for 15-30 min at 30° C. in KAB supplemented with 10 µM ATP, 10 Ci [−32P]ATP (>5000 Ci/mmol, GE). The proteins were separated on 10% SDS-PAGE gels, transferred to nitrocellulose before exposure on a Phosphorlmager; and then processed for WB with TLK1 antiserum. For kinase assays with recombinant TLK1B protein, the reactions were similar, and carried out with 10 ng TLK1B and 50 ng Rad9 peptide substrate. These were carried out to confirm the initial “hits” from the screen and further to obtain accurate ID50 values for the various inhibitors.

[2] = molecular target: D2 receptor (Homo sapiens, UniProt P14416); conditions: cited from earlier work
[3] = tested on: Rad9 S328 phosphorylation in DU145 cells; assay: Rad9 S328 phosphorylation and checkpoint markers in DU145 cells after H2O2; format: cell-based, human
Experimental: The inhibitors worked as expected on the pattern of phosphorylation of Rad9 […]. After treatment of DU145 cells with H2O2 for 10 min to generate breaks, there is a corresponding wave of phosphorylation and dephosphorylation of […] after completion of repair (FIG. 5) that matches the pattern of activity of TLK1/1B TLKs are the only known kinases that phosphorylate Rad9 […] 4. Generation of DSBs causes transient inhibition of TLK1 and simultaneous synthesis of TLK1B, which then results in hyper phosphorylation of […] upon restoration of kinase activity [FIG. 5A; 5]. Once H2O2 is degraded and most DNA breaks are repaired, the phosphorylation returns to baseline. The inhibitors, PPH (LS125) in particular, blocked the activation of TLK and consequent phosphorylation of Rad9 ([…]) (5C). […] FIG. 5). A key role of TLKs is then to participate in restoration of cell cycle upon completion of repair. Interfering with this process has dire consequences for cell viability; more likely for cancer cells that are genetically more unstable and already have defects in DNA repair functions, if not just for their reliance on these kinases.

[4] = tested on: cell cycle; assay: Cell cycle and apoptosis, with or without doxo; format: cell-based; conditions: inhibitor alone, 15 μM
Description: A matching experimental set was processed by WB for evidence of cleaved PARP, and possible effects on ClnD1 accumulation, which occurs in late G1 and throughout S phases. […] The

[5] = molecular target: DNA PK (Homo sapiens, UniProt P78527); conditions: cited from earlier work
[6] = tested on: stalled replication forks; assay: Restart of stalled replication forks after release from hydroxyurea; format: cell-based; conditions: after release from hydroxyurea (HU)
[7] = tested on: PC 3 (human CaP cells); assay: IHC analysis of excised PC 3 tumors; parameters: species or system SCID/bg mice; conditions: mouse, in vivo
Description: Some features are immediately noticeable even upon H&E staining that could explain the tumor growth patterns. […] We interpret this as being the result of accumulation of DNA damage, including DSBs, which are not promptly repaired, even as they may be expected to occur spontaneously in many cells in the harsh environment of tumor growth. This has in fact been reported before and was attributed to localized hypoxia 24. […] The staining was not negative, as one may think, since inspection at higher magnification confirmed the expected pattern of exclusively nuclear staining and lower intensity in nucleoli. […] This is consistent with the γH2AX pattern, showing a large number of cells harboring repair foci, and thus likely arrested in replication (or progressing slowly through S phase). To further establish this, we looked at presence of RPA foci, which is indicative of stalled forks25. As expected from the large number of proliferating cells (PCNA positive) in control tumors, RPA1 Staining was very strong, and particularly in focal areas. RPA1 staining in tumors from doxo treated mice was interesting. […] In tumors from mice treated with doxo+THD, staining for RPA was very weak and consistent to that obtained for PCNA. […] However, we did stain for P Rad9 (S328) to confirm that the effects were mediated via TLK inhibition, in what we propose is part of a checkpoint deactivation mechanism following repair of spontaneous DNA damage. Indeed, numerous cells stained lightly for P Rad9 in untreated tumor cells in fact, they are perhaps a larger proportion than those staining for γH2AX that presumably represent cells with unrepaired DSBs.

[8] = tested on: MDA 231-Luc; assay: MDA 231-Luc xenograft model; format: in vivo; conditions: female SCID/bg mice, treatment groups as in PC 3 study
Description: We used the breast cancer model cell line MDA 231-Luc, for more precise quantitation of tumor growth (photon emission is linear with the tumor cell number). Female SCID/bg mice (N=8 per group) received 1×10^6 cells and when the tumors reached ˜500 mm3 (˜104 photons/sec) they were assigned to four treatment groups, as in the study above (Sup. FIG. 4).

[9] = tested on: kinase panel (KinomeScan); assay: KinomeScan kinase panel (DiscoverRx); format: binding; conditions: significantly inhibited = >60% at 10 μM
[10] = tested on: panel of cell lines; assay: Doubling in a larger panel of cell lines; format: cell-based; conditions: inhibitor alone
Description: inhibitors had generally similar potency in additive killing with doxo in both DU145 and PC3 (FIG. 6). The RMT potentiation is not limited to these two CaP cell lines, but is also true for MDA MB231 BCA cells (FIG. 6). […] The TLK inhibitors by themselves had little effect on MDA231 viability and doubling (Sup. FIG. 3). […] This is consistent with their proposed mechanism as inhibitors of DSB repair.

[11] = tested on: PC 3 (human CaP cells); conditions: THD 0.25 mg daily oral gavage; doxo 1 mg/kg intraperitoneal days 54, 68, 95
Experimental: PC 3 model. A study was undertaken to investigate the in vivo efficacy of THD compared to doxo and to determine any sensitization conferred to the tumor cells by treatment with a combination of the two drugs. Eighty male SCID/bg mice received 1×106 PC 3 (human CaP cells) cells subcutaneous into their flanks. At day 49 post s inoculation, we began weekly tumor measurements by caliper [volume=(L×W2)[…])]. […] At day 54, daily oral gavages of THD (0.25 mg in water) were given, and intraperitoneal injections of doxo (1 mg/kg; see arrows in FIG. 7) were at days 54, 68, and 95 (last day before euthanasia). […] In any case, the tumors were excised at the end of the experiment (before the control group tumors reached the preset end point of 1500 mm3) and processed for IHC analysis. The mice were dosed on last day before euthanasia with doxo to induce bona fide DSBs.

[12] = molecular target: T2, GST TLK1B (Homo sapiens, UniProt Q9UKI8); assay: Binding to GST TLK1B affixed to Immobilon filter; conditions: color will not wash out
T2 sequence (Q9UKI8 1-549 isoform Q9UKI8-3): T1 sequence (Q9UKI8 1-549 isoform Q9UKI8-3)
Description: To determine how structurally related antipsychotic drugs might differ from each other and produce different biological effects, we analyzed optimized drug structures by quantum mechanics (QM) methods. Drugs of interest were built with MarvinSketch 5.3.2 (ChemAxon) for initial optimization of the 3D structure. For the panels shown here (Sup. FIG. 1), orbitals from the highest occupied molecular orbital (HOMO) and the lowest unoccupied molecular orbital (LUMO) have been depicted. […] The planar heterocyclic ring structure of staurosporine and its out of plane aminated glucose moiety are reminiscent of the structure of the phenothiazines. Bulky substituents on the main phenothiazine ring, such as fluorine groups, may only be tolerated in a certain orientation relative to the alkyl side chain, depending upon the reactivity of the side chain. Moreover, the fit at the binding site will be determined by whether active groups in the drugs (rings vs. side chains) serve as donors or acceptors in non bond interactions (e.g., it bonding and van der Waals interactions). While QM characterization of the drugs is not definitive, certain trends emerged from this analysis. In Sup. […] In fact, methylene blue, which stains nucleic acids but not most proteins, remains so tightly bound to GST TLK1B that after its affixation to an Immobilon filter the color bound to the protein will not wash out.

D2 receptor, sequence (P14416 whole entry): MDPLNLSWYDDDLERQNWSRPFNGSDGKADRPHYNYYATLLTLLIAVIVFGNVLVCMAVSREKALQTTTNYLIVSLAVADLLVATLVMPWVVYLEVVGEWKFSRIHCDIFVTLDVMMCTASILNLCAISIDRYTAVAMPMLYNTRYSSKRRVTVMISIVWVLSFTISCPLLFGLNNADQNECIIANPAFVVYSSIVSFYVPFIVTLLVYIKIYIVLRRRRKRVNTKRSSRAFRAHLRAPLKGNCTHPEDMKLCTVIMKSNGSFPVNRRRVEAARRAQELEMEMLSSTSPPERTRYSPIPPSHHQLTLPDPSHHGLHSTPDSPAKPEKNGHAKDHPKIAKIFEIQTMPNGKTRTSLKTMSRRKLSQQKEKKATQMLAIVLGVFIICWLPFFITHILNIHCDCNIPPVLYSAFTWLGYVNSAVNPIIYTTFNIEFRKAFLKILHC

SMILES: CN1CCN(CCCN2c3ccccc3Sc3ccc(C(F)(F)F)cc32)CC1 [TFP, trifluoperazine]
activity on TLK (TLK kinase assays) [1]: active; also recorded: identified as TLK inhibitors
inhibition of TLKs ([1]; sub toxic concentrations 10-20 μM): completely inhibit TLKs
(apoptotic) sub G1 cells [4]: very modest increase
cleaved PARP [4]: very modest evidence of cleaved PARP
effect on the cell cycle [4]: little effect on the cell cycle
DNA PK inhibition ([5]; TFP 10-20 μM): not inhibited
reported inhibition of DNA PK in vitro, concentration ([5]; in vitro): 0.1 to 0.2 mM
restart of stalled replication forks and linked phosphorylation of Rad9 (S328) [6]: greatly extends this process

SMILES: CSc1ccc2c(c1)N(CCC1CCCCN1C)c1ccccc1S2 (stereo not drawn) [THD, Thioridazine]
activity on TLK (TLK kinase assays) [1]: active; also recorded: identified as TLK inhibitors
P Rad9 (S328) staining [7]: severe suppression of P Rad9
PCNA positive cells [7]: significantly fewer PCNA positive cells
cellular density of the tumor (H&E staining) [7]: clearly reduced the tumor density
γH2AX positive cells [7]: a large proportion of positive staining cells
tumor growth (photon emission) [8]: effective at controlling tumor increase
inhibition of other kinases in the panel [9]: no other kinase in the panel was significantly inhibited
cell doubling / growth [10]: not found very many cancer cell lines that were sensitive to THD

SMILES: COc1cccc2c1C(=O)c1c(O)c3c(c(O)c1C2=O)C[C@@](O)(C(=O)CO)C[C@@H]3O[C@H]1C[C@H](N)[C@H](O)[C@H](C)O1 [doxo, doxorubicin]
P Rad9 (S328) staining [7]: much stronger staining for P Rad9
RPA staining [7]: overall staining was weaker for most areas of the section
cellular density of the tumor (H&E staining) [7]: only slightly decreased the cellular density of the tumor
γH2AX positive cells [7]: a large proportion
tumor growth (photon emission) [8]: insufficient to stop growth of tumors
tumor growth [11]: definite trend was seen for doxo reducing tumor growth

SMILES: c1ccc2c(c1)Nc1ccccc1S2 [phenothiazine]
activity on TLK (TLK kinase assays) [1]: highly inhibitory

Second part, led by results:

activity on TLK (TLK kinase assays) [1]: inactive for TLK
SMILES: OCCN1CCN(CCCN2c3ccccc3Sc3ccc(C(F)(F)F)cc32)CC1 [FF, fluphenazine]
D2 receptor antagonism [2]: more potent D2 receptor antagonist than either TFP (active) or THD

activity on TLK (TLK kinase assays) [1]: inactive
SMILES: CN1CCN(CCCN2c3ccccc3Sc3ccc(Cl)cc32)CC1 [PCP, prochlorperazine]

activity on TLK (TLK kinase assays) [1]: identified as TLK inhibitors
SMILES: CN(C)CCCN1c2ccccc2Sc2ccccc21 [PMZ, promazine]
D2 receptor antagonism [2]: does not have much activity as a D2 antagonist

activity on TLK (TLK kinase assays) [1]: identified as TLK inhibitors
SMILES: OCCN1CCN(CCCN2c3ccccc3Sc3ccc(Cl)cc32)CC1 [PPH, perphenazine]
Chk1 activation (P Chk1 S345) ([3]; H2O2): persistent activation of Chk1
cleavage of cdc25A ([3]; H2O2): elicited much faster
phosphorylation of Rad17 ([3]; H2O2): prolonged phosphorylation of Rad17
activation of TLK and phosphorylation of Rad9 (S328) ([3]; H2O2 for 10 min): blocked the activation of TLK and consequent phosphorylation of Rad9 (S328)

activity on TLK (TLK kinase assays) [1]: identified as TLK inhibitors
SMILES: CCSc1ccc2c(c1)N(CCCN1CCN(C)CC1)c1ccccc1S2 [TEZ, thiethylperazine]

binding to GST TLK1B [12]: tightly bound
activity on TLK (TLK kinase assays) [1]: highly inhibitory
SMILES: CN(C)c1ccc2nc3ccc(=[N+](C)C)cc-3sc2c1 [methylene blue]

— patent US20150018294A1, “MODULATORS OF TOUSLED KINASE IN CELLULAR PROCESSES” (priority 2012, published 2015)
